Measurements: ChEMBL document CHEMBL1697731, “Cheminformatics analysis of assertions mined from literature that describe drug-induced liver injury in different species” (Chem Res Toxicol, 2010)

Tests used:
Hepatotoxicity [1] = assay: Literature-mined compound from Fourches et al multi-species drug-induced liver injury (DILI) dataset, effect in rodents; details: rodentia
Hepatotoxicity [2] = assay: Literature-mined compound from Fourches et al multi-species drug-induced liver injury (DILI) dataset, effect in humans; details: human
Hepatotoxicity [3] = assay: Literature-mined compound from Fourches et al multi-species drug-induced liver injury (DILI) dataset, effect in non-rodents

## O=C(O)c1cc(-c2ccc(F)cc2F)ccc1O [DIFLUNISAL]
Hepatotoxicity [1]; Liver
  Hepatotoxicity: drug-induced liver injury reported
Hepatotoxicity [2]; Liver
  Hepatotoxicity: drug-induced liver injury reported
Hepatotoxicity [3]; Liver
  Hepatotoxicity: drug-induced liver injury reported

## COC(=O)C1=C(C)NC(C)=C(C(=O)OC(C)C)C1c1cccc2nonc12 (stereo unspecified) [ISRADIPINE]
Hepatotoxicity [1]
  Hepatotoxicity: no drug-induced liver injury reported
Hepatotoxicity [2]
  Hepatotoxicity: drug-induced liver injury reported
Hepatotoxicity [3]
  Hepatotoxicity: no drug-induced liver injury reported

## Clc1ccccc1C(c1ccccc1)(c1ccccc1)n1ccnc1 [CLOTRIMAZOLE]
Hepatotoxicity [1]
  Hepatotoxicity: drug-induced liver injury reported
Hepatotoxicity [2]
  Hepatotoxicity: no drug-induced liver injury reported
Hepatotoxicity [3]
  Hepatotoxicity: no drug-induced liver injury reported

## O=C1CN(/N=C/c2ccc([N+](=O)[O-])o2)C(=O)N1CO [NIFURTOINOL]
Hepatotoxicity [1]
  Hepatotoxicity: no drug-induced liver injury reported
Hepatotoxicity [2]
  Hepatotoxicity: drug-induced liver injury reported
Hepatotoxicity [3]
  Hepatotoxicity: no drug-induced liver injury reported

## NCC[C@H](O)C(=O)N[C@@H]1C[C@H](N)[C@@H](O[C@H]2O[C@H](CN)[C@@H](O)[C@H](O)[C@H]2O)[C@H](O)[C@H]1O[C@H]1O[C@H](CO)[C@@H](O)[C@H](N)[C@H]1O [AMIKACIN]
Hepatotoxicity [1]
  Hepatotoxicity: no drug-induced liver injury reported
Hepatotoxicity [2]
  Hepatotoxicity: drug-induced liver injury reported
Hepatotoxicity [3]
  Hepatotoxicity: drug-induced liver injury reported

## Cc1cc(C)c(/C=C2\C(=O)Nc3ccccc32)[nH]1 [SEMAXANIB]
Hepatotoxicity [1]
  Hepatotoxicity: drug-induced liver injury reported
Hepatotoxicity [2]
  Hepatotoxicity: drug-induced liver injury reported
Hepatotoxicity [3]
  Hepatotoxicity: no drug-induced liver injury reported

## CC1=C(/C=C/C(C)=C\C=C\C(C)=C\C(=O)O)C(C)(C)CCC1 [ALITRETINOIN]
Hepatotoxicity [1]
  Hepatotoxicity: drug-induced liver injury reported
Hepatotoxicity [2]
  Hepatotoxicity: drug-induced liver injury reported
Hepatotoxicity [3]
  Hepatotoxicity: no drug-induced liver injury reported

## CC(C)NCC(O)c1ccc(NS(C)(=O)=O)cc1 (stereo unspecified) [SOTALOL]
Hepatotoxicity [1]
  Hepatotoxicity: drug-induced liver injury reported
Hepatotoxicity [2]
  Hepatotoxicity: no drug-induced liver injury reported
Hepatotoxicity [3]
  Hepatotoxicity: no drug-induced liver injury reported

## Cc1oncc1C(=O)Nc1ccc(C(F)(F)F)cc1 [LEFLUNOMIDE]
Hepatotoxicity [1]
  Hepatotoxicity: drug-induced liver injury reported
Hepatotoxicity [2]
  Hepatotoxicity: drug-induced liver injury reported
Hepatotoxicity [3]
  Hepatotoxicity: no drug-induced liver injury reported

## OXALIPLATIN
Hepatotoxicity [1]
  Hepatotoxicity: no drug-induced liver injury reported
Hepatotoxicity [2]
  Hepatotoxicity: drug-induced liver injury reported
Hepatotoxicity [3]
  Hepatotoxicity: no drug-induced liver injury reported

## CC(=O)O[C@@]12CO[C@@H]1C[C@H](O)[C@@]1(C)C(=O)[C@H](O)C3=C(C)[C@@H](OC(=O)[C@H](O)[C@@H](NC(=O)OC(C)(C)C)c4ccccc4)C[C@@](O)([C@@H](OC(=O)c4ccccc4)[C@H]21)C3(C)C.O.O.O [DOCETAXEL]
Hepatotoxicity [1]
  Hepatotoxicity: drug-induced liver injury reported
Hepatotoxicity [2]
  Hepatotoxicity: drug-induced liver injury reported
Hepatotoxicity [3]
  Hepatotoxicity: no drug-induced liver injury reported

## C[C@]12CCC(=O)C=C1CC[C@@H]1[C@@H]2[C@@H](O)C[C@@]2(C)[C@H]1CC[C@]2(O)C(=O)CO [HYDROCORTISONE]
Hepatotoxicity [1]
  Hepatotoxicity: drug-induced liver injury reported
Hepatotoxicity [2]
  Hepatotoxicity: drug-induced liver injury reported
Hepatotoxicity [3]
  Hepatotoxicity: drug-induced liver injury reported

## NCCCC[C@H](NC(=O)[C@@H]1CCCN1C(=O)[C@@H]1CSSC[C@H](NC(=O)CNC(=O)CNC(=O)CN)C(=O)N[C@@H](Cc2ccc(O)cc2)C(=O)N[C@@H](Cc2ccccc2)C(=O)N[C@@H](CCC(N)=O)C(=O)N[C@@H](CC(N)=O)C(=O)N1)C(=O)NCC(N)=O [TERLIPRESSIN]
Hepatotoxicity [1]
  Hepatotoxicity: no drug-induced liver injury reported
Hepatotoxicity [2]
  Hepatotoxicity: drug-induced liver injury reported
Hepatotoxicity [3]
  Hepatotoxicity: drug-induced liver injury reported

## COc1ccc2c(c1)[C@]13CCCC[C@@H]1[C@H](C2)N(C)CC3 [DEXTROMETHORPHAN]
Hepatotoxicity [1]
  Hepatotoxicity: no drug-induced liver injury reported
Hepatotoxicity [2]
  Hepatotoxicity: drug-induced liver injury reported
Hepatotoxicity [3]
  Hepatotoxicity: no drug-induced liver injury reported

## COc1ccc2cc(CCC(C)=O)ccc2c1 [NABUMETONE]
Hepatotoxicity [1]
  Hepatotoxicity: drug-induced liver injury reported
Hepatotoxicity [2]
  Hepatotoxicity: no drug-induced liver injury reported
Hepatotoxicity [3]
  Hepatotoxicity: no drug-induced liver injury reported

## COCCOC(=O)C1=C(C)NC(C)=C(C(=O)OC(C)C)C1c1cccc([N+](=O)[O-])c1 (stereo unspecified) [NIMODIPINE]
Hepatotoxicity [1]
  Hepatotoxicity: drug-induced liver injury reported
Hepatotoxicity [2]
  Hepatotoxicity: drug-induced liver injury reported
Hepatotoxicity [3]
  Hepatotoxicity: no drug-induced liver injury reported

## CC(C)(C)NCC(O)c1cc(O)cc(O)c1 (stereo unspecified) [TERBUTALINE]
Hepatotoxicity [1]
  Hepatotoxicity: drug-induced liver injury reported
Hepatotoxicity [2]
  Hepatotoxicity: no drug-induced liver injury reported
Hepatotoxicity [3]
  Hepatotoxicity: drug-induced liver injury reported

## Nc1ccc(S(=O)(=O)Nc2ncccn2)cc1 [SULFADIAZINE]
Hepatotoxicity [1]; Liver
  Hepatotoxicity: no drug-induced liver injury reported
Hepatotoxicity [2]; Liver
  Hepatotoxicity: drug-induced liver injury reported
Hepatotoxicity [3]; Liver
  Hepatotoxicity: no drug-induced liver injury reported

## CC(=O)Oc1ccccc1C(=O)O [ASPIRIN]
Hepatotoxicity [1]
  Hepatotoxicity: drug-induced liver injury reported
Hepatotoxicity [2]
  Hepatotoxicity: drug-induced liver injury reported
Hepatotoxicity [3]
  Hepatotoxicity: drug-induced liver injury reported

## Sc1ncnc2nc[nH]c12 [MERCAPTOPURINE ANHYDROUS]
Hepatotoxicity [1]; Liver
  Hepatotoxicity: drug-induced liver injury reported
Hepatotoxicity [2]; Liver
  Hepatotoxicity: drug-induced liver injury reported
Hepatotoxicity [3]; Liver
  Hepatotoxicity: no drug-induced liver injury reported

## Cc1c(N(C)CS(=O)(=O)[O-])c(=O)n(-c2ccccc2)n1C.[Na+] [DIPYRONE SODIUM]
Hepatotoxicity [1]
  Hepatotoxicity: drug-induced liver injury reported
Hepatotoxicity [2]
  Hepatotoxicity: drug-induced liver injury reported
Hepatotoxicity [3]
  Hepatotoxicity: no drug-induced liver injury reported

## Nc1ncn([C@@H]2O[C@H](CO)[C@@H](O)[C@H]2O)c(=O)n1 [AZACITIDINE]
Hepatotoxicity [1]; Liver
  Hepatotoxicity: drug-induced liver injury reported
Hepatotoxicity [2]; Liver
  Hepatotoxicity: drug-induced liver injury reported
Hepatotoxicity [3]; Liver
  Hepatotoxicity: no drug-induced liver injury reported

## C=C(CC)C(=O)c1ccc(OCC(=O)O)c(Cl)c1Cl [ETHACRYNIC ACID]
Hepatotoxicity [1]
  Hepatotoxicity: drug-induced liver injury reported
Hepatotoxicity [2]
  Hepatotoxicity: no drug-induced liver injury reported
Hepatotoxicity [3]
  Hepatotoxicity: drug-induced liver injury reported

## CCN(CC)C(=S)[S][Na] [DITIOCARB SODIUM]
Hepatotoxicity [1]
  Hepatotoxicity: drug-induced liver injury reported
Hepatotoxicity [2]
  Hepatotoxicity: no drug-induced liver injury reported
Hepatotoxicity [3]
  Hepatotoxicity: no drug-induced liver injury reported

## CN(C)[C@@H]1C(O)=C(C(N)=O)C(=O)[C@@]2(O)C(O)=C3C(=O)c4c(O)cccc4[C@@](C)(O)[C@H]3C[C@@H]12 [TETRACYCLINE]
Hepatotoxicity [1]
  Hepatotoxicity: drug-induced liver injury reported
Hepatotoxicity [2]
  Hepatotoxicity: drug-induced liver injury reported
Hepatotoxicity [3]
  Hepatotoxicity: drug-induced liver injury reported

## C[C@]12CCC3=C4CCC(=O)C=C4CC[C@H]3[C@@H]1CC[C@@]2(O)CC#N [DIENOGEST]
Hepatotoxicity [1]
  Hepatotoxicity: drug-induced liver injury reported
Hepatotoxicity [2]
  Hepatotoxicity: no drug-induced liver injury reported
Hepatotoxicity [3]
  Hepatotoxicity: no drug-induced liver injury reported

## CNC[C@H](O)c1cccc(O)c1 [PHENYLEPHRINE]
Hepatotoxicity [1]
  Hepatotoxicity: drug-induced liver injury reported
Hepatotoxicity [2]
  Hepatotoxicity: drug-induced liver injury reported
Hepatotoxicity [3]
  Hepatotoxicity: drug-induced liver injury reported

## O=c1oc2ccccc2c(O)c1Cc1c(O)c2ccccc2oc1=O [DICUMAROL]
Hepatotoxicity [1]
  Hepatotoxicity: drug-induced liver injury reported
Hepatotoxicity [2]
  Hepatotoxicity: drug-induced liver injury reported
Hepatotoxicity [3]
  Hepatotoxicity: no drug-induced liver injury reported

## CCOC(=O)n1ccn(C)c1=S [CARBIMAZOLE]
Hepatotoxicity [1]
  Hepatotoxicity: no drug-induced liver injury reported
Hepatotoxicity [2]
  Hepatotoxicity: drug-induced liver injury reported
Hepatotoxicity [3]
  Hepatotoxicity: no drug-induced liver injury reported

## CCC1(CCC(C)C)C(=O)NC(=O)NC1=O [AMOBARBITAL]
Hepatotoxicity [1]
  Hepatotoxicity: drug-induced liver injury reported
Hepatotoxicity [2]
  Hepatotoxicity: no drug-induced liver injury reported
Hepatotoxicity [3]
  Hepatotoxicity: no drug-induced liver injury reported

## Cc1[nH]c(/C=C2\C(=O)Nc3ccccc32)c(C)c1CCC(=O)O [ORANTINIB]
Hepatotoxicity [1]
  Hepatotoxicity: no drug-induced liver injury reported
Hepatotoxicity [2]
  Hepatotoxicity: drug-induced liver injury reported
Hepatotoxicity [3]
  Hepatotoxicity: no drug-induced liver injury reported

## CC[C@@]1(O)C(=O)OCc2c1cc1n(c2=O)Cc2cc3c([N+](=O)[O-])cccc3nc2-1 [RUBITECAN]
Hepatotoxicity [1]
  Hepatotoxicity: no drug-induced liver injury reported
Hepatotoxicity [2]
  Hepatotoxicity: drug-induced liver injury reported
Hepatotoxicity [3]
  Hepatotoxicity: no drug-induced liver injury reported

## COc1ccc2c(c1OC)C(=O)O[C@@H]2[C@H]1c2c(cc3c(c2OC)OCO3)CCN1C [NOSCAPINE]
Hepatotoxicity [1]
  Hepatotoxicity: drug-induced liver injury reported
Hepatotoxicity [2]
  Hepatotoxicity: no drug-induced liver injury reported
Hepatotoxicity [3]
  Hepatotoxicity: no drug-induced liver injury reported

## COc1c(N2CCNC(C)C2)c(F)cc2c(=O)c(C(=O)O)cn(C3CC3)c12 (stereo unspecified) [GATIFLOXACIN]
Hepatotoxicity [1]
  Hepatotoxicity: no drug-induced liver injury reported
Hepatotoxicity [2]
  Hepatotoxicity: drug-induced liver injury reported
Hepatotoxicity [3]
  Hepatotoxicity: no drug-induced liver injury reported

## CN[C@@H](C)Cc1ccccc1 [METHAMPHETAMINE]
Hepatotoxicity [1]
  Hepatotoxicity: drug-induced liver injury reported
Hepatotoxicity [2]
  Hepatotoxicity: drug-induced liver injury reported
Hepatotoxicity [3]
  Hepatotoxicity: no drug-induced liver injury reported

## IRON(II) CITRATE
Hepatotoxicity [1]
  Hepatotoxicity: drug-induced liver injury reported
Hepatotoxicity [2]
  Hepatotoxicity: no drug-induced liver injury reported
Hepatotoxicity [3]
  Hepatotoxicity: no drug-induced liver injury reported

## N[C@@H](Cc1c[nH]c2ccccc12)C(=O)O [TRYPTOPHAN]
Hepatotoxicity [1]
  Hepatotoxicity: drug-induced liver injury reported
Hepatotoxicity [2]
  Hepatotoxicity: no drug-induced liver injury reported
Hepatotoxicity [3]
  Hepatotoxicity: no drug-induced liver injury reported
